IC50 data for 29 compounds are collected here from US9981916B2 (Genentech, Inc., priority 2013, dated 2018).

The experiment deals with T1, RORc ligand binding domain (Homo sapiens, UniProt P51449).
T1 construct: host or cells: E. coli
T1 sequence (P51449 269-508 limits assumed): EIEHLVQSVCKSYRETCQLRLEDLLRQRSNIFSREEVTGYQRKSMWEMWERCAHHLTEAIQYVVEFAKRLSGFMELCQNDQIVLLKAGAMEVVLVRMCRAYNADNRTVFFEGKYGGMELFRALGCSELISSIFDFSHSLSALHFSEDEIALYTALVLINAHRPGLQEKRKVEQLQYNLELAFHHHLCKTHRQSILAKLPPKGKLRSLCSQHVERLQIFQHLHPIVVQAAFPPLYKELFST
Description: In vitro RORc ligand binding assay (25-[3H]hydroxycholesterol displacement, filter binding). Particulars: 6 nM 25-[3H]hydroxycholesterol, 0.6 ug/mL RORc receptor, 3 h at 25° C. The gist of the method:
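Compounds in 5% DMSO, either dose-response or screened at 1 and 10 uM, competed with 6 nM 25-[3H]hydroxycholesterol for 0.6 ug/mL RORc over 3 h at 25° C (HEPES pH 7.4, NaCl, MgCl2, DTT, BSA buffer). Bound tracer was filter-harvested and counted; nonspecific binding came from 1 uM 25-hydroxycholesterol.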
For orientation: IC50 means the concentration needed to halve the response being measured. Low values mean greater potency, high ones weaker potency. Consider `CC1(C)[C@H]2CC[C@]1(c1cocn1)c1nnc(-c3c(F)cccc3F)cc12` [Example 114, (5R,8S)-3-(2,6-difluorophenyl)-9,9-dimethyl-8-(1,3-oxazol-4-yl)-5,6,7,8-tetrahydro-5,8-methanocinnoline], for which the IC50 amounted to 39 nM. As to `Cc1ncc([C@@]23CC[C@@H](c4cc(-c5c(F)cccc5F)nnc42)C3(C)C)o1` [Example 117, (5R,8R)-3-(2,6-difluorophenyl)-9,9-dimethyl-8-(2-methyl-1,3-oxazol-5-yl)-5,6,7,8-tetrahydro-5,8-methanocinnoline], the IC50 is 19 nM. In turn, `Cc1ncoc1[C@@]12CC[C@@H](c3cc(-c4c(F)cccc4F)nnc31)C2(C)C` [Example 118, (5R,8R)-3-(2,6-difluorophenyl)-9,9-dimethyl-8-(4-methyl-1,3-oxazol-5-yl)-5,6,7,8-tetrahydro-5,8-methanocinnoline] came in with an IC50 of 134 nM. Consider `CC1(C)[C@H]2CC[C@]1(COc1ccccn1)c1nnc(-c3c(F)cccc3F)cc12` [Example 120, (5R,8R)-3-(2,6-difluorophenyl)-9,9-dimethyl-8-[(pyridin-2-yloxy)methyl]-5,6,7,8-tetrahydro-5,8-methanocinnoline], for which the IC50 amounted to 126 nM.

`CC1(C)[C@H]2CC[C@]1(Cn1ccccc1=O)c1nnc(-c3c(F)cccc3F)cc12` [Example 121, 1-{[(5R,8S)-3-(2,6-difluorophenyl)-9,9-dimethyl-6,7-dihydro-5,8-methanocinnolin-8(5H)-yl]methyl}pyridin-2(1H)-one] yielded an IC50 of 199 nM. In the case of `CCc1nnc([C@@]23CC[C@@H](c4cc(-c5c(F)cccc5F)nnc42)C3(C)C)o1` [Example 122, (5R,8R)-3-(2,6-difluorophenyl)-9,9-dimethyl-8-(5-ethyl-1,3,4-oxadiazol-2-yl)-5,6,7,8-tetrahydro-5,8-methanocinnoline] it was 17 nM; in that of `CC1(C)[C@H]2CC[C@]1(c1nnc(C3CC3)o1)c1nnc(-c3c(F)cccc3F)cc12` [Example 123, (5R,8R)-3-(2,6-difluorophenyl)-9,9-dimethyl-8-(5-cyclopropyl-1,3,4-oxadiazol-2-yl)-5,6,7,8-tetrahydro-5,8-methanocinnoline], 109 nM. `CCc1nnc([C@@]23CC[C@@H](c4cc(-c5c(F)cccc5F)nnc42)C3(C)C)s1` [Example 124, (5R,8R)-3-(2,6-difluorophenyl)-9,9-dimethyl-8-(5-ethyl-1,3,4-thiadiazol-2-yl)-5,6,7,8-tetrahydro-5,8-methanocinnoline] showed an IC50 of 117 nM. Turning to `CC(C)c1nnc([C@@]23CC[C@@H](c4cc(-c5c(F)cccc5F)nnc42)C3(C)C)o1` [Example 125, (5R,8R)-3-(2,6-difluorophenyl)-9,9-dimethyl-8-(5-isopropyl-1,3,4-oxadiazol-2-yl)-5,6,7,8-tetrahydro-5,8-methanocinnoline], the IC50 is 811 nM. In the case of `CC1(C)[C@H]2C=C[C@]1(C)c1nnc(-c3c(F)cccc3F)cc12` [Example 126, (5R,8S)-3-(2,6-difluorophenyl)-8,9,9-trimethyl-5,8-dihydro-5,8-methanocinnoline] it was 340 nM; in that of `CC1(C)[C@H]2C(=O)C[C@]1(C)c1nnc(-c3ccccc3F)cc12` [Example 127, (5R,8S)-3-(2-fluorophenyl)-8,9,9-trimethyl-7,8-dihydro-5,8-methanocinnolin-6(5H)-one], 1700 nM. In the case of `CC1(C)[C@@H]2CC[C@@]1(C(=O)Nc1ccc(C#N)cn1)c1nnc(-c3ccccc3F)cc12` [Example 128, (5S,8S)-N-(5-cyanopyridin-2-yl)-3-(2-fluorophenyl)-9,9-dimethyl-5,6,7,8-tetrahydro-5,8-methanocinnoline-8-carboxamide] it was 848 nM; in that of `CC1(C)[C@@H]2CC[C@@]1(C(=O)Nc1ccccc1S(C)(=O)=O)c1nnc(-c3ccccc3F)cc12` [Example 129, (5S,8S)-3-(2-fluorophenyl)-9,9-dimethyl-N-(2-(methylsulfonyl)phenyl)-5,6,7,8-tetrahydro-5,8-methanocinnoline-8-carboxamide], 1790 nM; in that of `CC1(C)[C@@H]2CC[C@@]1(C(=O)NCC(F)F)c1nnc(-c3ccccc3F)cc12` [Example 130, (5S,8S)-N-(2,2-difluoroethyl)-3-(2-fluorophenyl)-9,9-dimethyl-5,6,7,8-tetrahydro-5,8-methanocinnoline-8-carboxamide], 1120 nM. In the case of `CC(C)CNC(=O)[C@]12CC[C@H](c3cc(-c4ccccc4F)nnc31)C2(C)C` [Example 131, (5S,8S)-3-(2-fluorophenyl)-N-isobutyl-9,9-dimethyl-5,6,7,8-tetrahydro-5,8-methanocinnoline-8-carboxamide] it was 1330 nM.

Consider `CC1(C)[C@@H]2CC[C@@]1(C(=O)NCC1CC1)c1nnc(-c3ccccc3F)cc12` [Example 132, (5S,8S)-N-(cyclopropylmethyl)-3-(2-fluorophenyl)-9,9-dimethyl-5,6,7,8-tetrahydro-5,8-methanocinnoline-8-carboxamide], for which the IC50 was determined as 707 nM. In the case of `CC1(C)[C@@H]2CC[C@@]1(C(=O)NCc1ccc(F)cc1)c1nnc(-c3ccccc3F)cc12` [Example 133, (5S,8S)-N-(4-fluorobenzyl)-3-(2-fluorophenyl)-9,9-dimethyl-5,6,7,8-tetrahydro-5,8-methanocinnoline-8-carboxamide] it was 876 nM. In the case of `CCNC(=O)[C@]12CC[C@H](c3cc(-c4ccccc4F)nnc31)C2(C)C` [Example 134, (5S,8S)-N-ethyl-3-(2-fluorophenyl)-9,9-dimethyl-5,6,7,8-tetrahydro-5,8-methanocinnoline-8-carboxamide] it was 211 nM. In the case of `CC1(C)[C@H]2CC[C@]1(C(=O)N1CC(F)(F)C1)c1nnc(-c3c(F)cccc3F)cc12` [Example 135, (3,3-difluoroazetidin-1-yl)((5R,8R)-3-(2,6-difluorophenyl)-9,9-dimethyl-5,6,7,8-tetrahydro-5,8-methanocinnolin-8-yl)methanone] it was 643 nM; in that of `COC(=O)C1CN(C(=O)[C@@]23CC[C@@H](c4cc(-c5c(F)cccc5F)nnc42)C3(C)C)C1` [Example 136, methyl 1-((5R,8R)-3-(2,6-difluorophenyl)-9,9-dimethyl-5,6,7,8-tetrahydro-5,8-methanocinnoline-8-carbonyl)azetidine-3-carboxylate], 524 nM; in that of `COCC1CN(C(=O)[C@@]23CC[C@@H](c4cc(-c5c(F)cccc5F)nnc42)C3(C)C)C1` [Example 137, ((5R,8R)-3-(2,6-difluorophenyl)-9,9-dimethyl-5,6,7,8-tetrahydro-5,8-methanocinnolin-8-yl)(3-(methoxymethyl)azetidin-1-yl)methanone], 182 nM. The compound `CC1(C)[C@H]2CC[C@]1(c1nnc(C(F)F)o1)c1nnc(-c3c(F)cccc3F)cc12` [Example 138, 2-(difluoromethyl)-5-((5R,8R)-3-(2,6-difluorophenyl)-9,9-dimethyl-5,6,7,8-tetrahydro-5,8-methanocinnolin-8-yl)-1,3,4-oxadiazole] registered a half-inhibitory concentration (IC50) of 170 nM. `CC1(C)[C@@H]2CC[C@@]1(C(=O)N1CC(F)(F)C1)c1nnc(-c3c(F)cccc3F)cc12` [Example 139, (3,3-difluoroazetidin-1-yl)((5S,8S)-3-(2,6-difluorophenyl)-9,9-dimethyl-5,6,7,8-tetrahydro-5,8-methanocinnolin-8-yl)methanone] had an IC50 of 30 nM. In the case of `COCC1CN(C(=O)[C@]23CC[C@H](c4cc(-c5c(F)cccc5F)nnc42)C3(C)C)C1` [Example 140, ((5S,8S)-3-(2,6-difluorophenyl)-9,9-dimethyl-5,6,7,8-tetrahydro-5,8-methanocinnolin-8-yl)(3-(methoxymethyl)azetidin-1-yl)methanone] it was 19 nM; in that of `CC1(C)[C@H]2CC[C@]1(C(=O)N1CCC1)c1nnc(-c3c(F)cccc3F)cc12` [Example 141, azetidin-1-yl((5R,8R)-3-(2,6-difluorophenyl)-9,9-dimethyl-5,6,7,8-tetrahydro-5,8-methanocinnolin-8-yl)methanone], 608 nM.

`CC1(C)CN(C(=O)[C@@]23CC[C@@H](c4cc(-c5c(F)cccc5F)nnc42)C3(C)C)C1` [Example 142, ((5R,8R)-3-(2,6-difluorophenyl)-9,9-dimethyl-5,6,7,8-tetrahydro-5,8-methanocinnolin-8-yl)(3,3-dimethylazetidin-1-yl)methanone] had an IC50 of 1420 nM. In the case of `Cc1nnc(OC[C@@]23CC[C@@H](c4cc(-c5c(F)cccc5F)nnc42)C3(C)C)o1` [Example 143, 2-(((5R,8R)-3-(2,6-difluorophenyl)-9,9-dimethyl-5,6,7,8-tetrahydro-5,8-methanocinnolin-8-yl)methoxy)-5-methyl-1,3,4-oxadiazole] it was 286 nM. In the case of `Cc1nnc(NC[C@@]23CC[C@@H](c4cc(-c5c(F)cccc5F)nnc42)C3(C)C)o1` [Example 144, N-(((5R,8S)-3-(2,6-difluorophenyl)-9,9-dimethyl-5,6,7,8-tetrahydro-5,8-methanocinnolin-8-yl)methyl)-5-methyl-1,3,4-oxadiazol-2-amine] it was 1370 nM; in that of `CC1(C)[C@H]2CC[C@]1(CO)c1nnc(Oc3c(F)cccc3F)cc12` [Example 145, ((5R,8R)-3-(2,6-difluorophenoxy)-9,9-dimethyl-5,6,7,8-tetrahydro-5,8-methanocinnolin-8-yl)methanol], 2000 nM.
